# Measurements: article doi:10.1101/2021.04.08.439011v1 (biorxiv, 2021)
# Experiments:
# [1] = target: CAMK2A (Homo sapiens, UniProt Q9UQM7); settings: 1 µM; binder
# [2] = target: KIT(A829P) (Homo sapiens, UniProt P10721, A829P); settings: 1 µM; binder
# [3] = target: MERTK (Homo sapiens, UniProt Q12866); settings: 1 µM; binder
# [4] = target: CAMK1G (Homo sapiens, UniProt Q96NX5); settings: 1 µM; binder
# [5] = target: CHEK2 (Homo sapiens, UniProt O96017); settings: 1 µM; binder
# [6] = target: WNK4 (Homo sapiens, UniProt Q96J92); settings: 1 µM; binder
# [7] = target: YANK3 (Homo sapiens, UniProt Q86UX6); settings: 1 µM; binder
# [8] = target: CDC2L1 (Homo sapiens, UniProt P21127); settings: 1 µM; binder
# [9] = target: PIM3 (Homo sapiens, UniProt Q86V86); settings: 1 µM; binder
# [10] = target: MATK (Homo sapiens, UniProt P42679); settings: 1 µM; binder
# Chain of MATK (P42679 whole entry): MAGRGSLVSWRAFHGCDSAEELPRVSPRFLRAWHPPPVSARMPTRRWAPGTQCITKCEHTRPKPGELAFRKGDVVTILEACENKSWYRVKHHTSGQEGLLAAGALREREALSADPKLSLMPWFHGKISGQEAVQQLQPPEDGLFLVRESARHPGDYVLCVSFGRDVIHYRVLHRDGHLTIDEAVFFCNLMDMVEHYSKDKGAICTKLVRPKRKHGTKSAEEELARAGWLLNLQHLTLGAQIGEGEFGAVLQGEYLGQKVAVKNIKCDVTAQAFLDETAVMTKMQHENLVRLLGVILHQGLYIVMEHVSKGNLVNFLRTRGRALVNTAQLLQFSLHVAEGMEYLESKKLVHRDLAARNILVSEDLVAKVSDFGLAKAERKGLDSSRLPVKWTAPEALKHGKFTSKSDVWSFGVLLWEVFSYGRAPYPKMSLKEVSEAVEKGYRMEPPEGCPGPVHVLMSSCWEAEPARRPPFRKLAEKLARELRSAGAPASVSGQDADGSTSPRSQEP
# [11] = target: MAP4K5 (Homo sapiens, UniProt Q9Y4K4); settings: 1 µM; binder
# [12] = target: TNIK (Homo sapiens, UniProt Q9UKE5); settings: 1 µM; binder
# [13] = target: ABL1(M351T) (Homo sapiens, UniProt P00519, M351T); settings: phosphorylated; 1 µM; binder
# [14] = target: TLK2 (Homo sapiens, UniProt Q86UE8); settings: 1 µM; binder
# [15] = target: EPHB3 (Homo sapiens, UniProt P54753); settings: 1 µM; binder
# Chain of EPHB3 (P54753 whole entry): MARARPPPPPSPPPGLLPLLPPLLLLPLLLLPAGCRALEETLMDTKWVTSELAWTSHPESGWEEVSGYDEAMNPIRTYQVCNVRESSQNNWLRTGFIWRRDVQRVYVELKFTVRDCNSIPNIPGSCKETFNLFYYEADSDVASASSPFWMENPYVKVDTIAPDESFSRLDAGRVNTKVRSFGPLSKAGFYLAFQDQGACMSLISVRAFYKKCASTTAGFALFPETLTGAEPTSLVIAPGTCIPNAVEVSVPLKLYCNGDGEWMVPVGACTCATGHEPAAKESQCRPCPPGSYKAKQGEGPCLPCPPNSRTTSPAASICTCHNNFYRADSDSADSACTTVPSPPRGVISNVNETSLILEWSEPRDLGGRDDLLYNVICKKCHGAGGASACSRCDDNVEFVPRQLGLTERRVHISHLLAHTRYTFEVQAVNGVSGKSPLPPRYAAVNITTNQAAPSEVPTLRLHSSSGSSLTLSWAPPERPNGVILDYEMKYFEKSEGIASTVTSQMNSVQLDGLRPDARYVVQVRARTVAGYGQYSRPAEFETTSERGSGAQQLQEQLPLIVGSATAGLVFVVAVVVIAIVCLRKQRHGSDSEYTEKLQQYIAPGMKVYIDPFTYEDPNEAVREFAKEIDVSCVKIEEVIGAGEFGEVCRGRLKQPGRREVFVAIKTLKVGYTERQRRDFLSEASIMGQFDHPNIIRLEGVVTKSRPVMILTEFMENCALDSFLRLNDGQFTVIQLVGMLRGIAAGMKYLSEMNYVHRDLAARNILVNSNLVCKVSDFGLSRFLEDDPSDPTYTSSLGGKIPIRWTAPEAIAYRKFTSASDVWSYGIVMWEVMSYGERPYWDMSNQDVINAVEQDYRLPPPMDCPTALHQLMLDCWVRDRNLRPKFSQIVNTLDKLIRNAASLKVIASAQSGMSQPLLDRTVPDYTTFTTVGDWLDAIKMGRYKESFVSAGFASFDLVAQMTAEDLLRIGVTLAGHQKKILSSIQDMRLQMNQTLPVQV
# [16] = target: CASK (Homo sapiens, UniProt O14936); settings: 1 µM; binder
# [17] = target: PCTK1 (Homo sapiens, UniProt Q00536); settings: 1 µM; binder
# Chain of PCTK1 (Q00536 whole entry): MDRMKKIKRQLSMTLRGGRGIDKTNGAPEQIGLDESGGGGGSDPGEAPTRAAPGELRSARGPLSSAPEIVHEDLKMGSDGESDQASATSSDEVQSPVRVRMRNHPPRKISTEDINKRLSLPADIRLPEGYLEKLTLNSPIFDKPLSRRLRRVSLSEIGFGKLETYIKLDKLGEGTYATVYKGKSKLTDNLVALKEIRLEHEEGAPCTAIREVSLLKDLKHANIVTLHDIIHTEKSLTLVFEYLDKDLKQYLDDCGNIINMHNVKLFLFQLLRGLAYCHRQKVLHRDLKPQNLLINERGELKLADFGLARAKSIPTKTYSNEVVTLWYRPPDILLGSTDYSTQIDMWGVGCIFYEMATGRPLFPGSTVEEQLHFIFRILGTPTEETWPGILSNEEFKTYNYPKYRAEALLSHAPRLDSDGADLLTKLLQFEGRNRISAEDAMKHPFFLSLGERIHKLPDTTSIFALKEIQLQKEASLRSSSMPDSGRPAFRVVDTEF
# [18] = target: FLT3(D835V) (Homo sapiens, UniProt P36888, D835V); settings: 1 µM; binder
# [19] = target: NIM1 (Homo sapiens, UniProt Q8IY84); settings: 1 µM; binder
# [20] = target: TXK (Homo sapiens, UniProt P42681); settings: 1 µM; binder
# [21] = target: INSR (Homo sapiens, UniProt P06213); settings: 1 µM; binder
# [22] = target: MST1R (Homo sapiens, UniProt Q04912); settings: 1 µM; binder
# [23] = target: IKK-beta (Homo sapiens, UniProt O14920); settings: 1 µM; binder
# [24] = target: VPS34 (Homo sapiens, UniProt Q8NEB9); settings: 1 µM; binder
# Chain of VPS34 (Q8NEB9 whole entry): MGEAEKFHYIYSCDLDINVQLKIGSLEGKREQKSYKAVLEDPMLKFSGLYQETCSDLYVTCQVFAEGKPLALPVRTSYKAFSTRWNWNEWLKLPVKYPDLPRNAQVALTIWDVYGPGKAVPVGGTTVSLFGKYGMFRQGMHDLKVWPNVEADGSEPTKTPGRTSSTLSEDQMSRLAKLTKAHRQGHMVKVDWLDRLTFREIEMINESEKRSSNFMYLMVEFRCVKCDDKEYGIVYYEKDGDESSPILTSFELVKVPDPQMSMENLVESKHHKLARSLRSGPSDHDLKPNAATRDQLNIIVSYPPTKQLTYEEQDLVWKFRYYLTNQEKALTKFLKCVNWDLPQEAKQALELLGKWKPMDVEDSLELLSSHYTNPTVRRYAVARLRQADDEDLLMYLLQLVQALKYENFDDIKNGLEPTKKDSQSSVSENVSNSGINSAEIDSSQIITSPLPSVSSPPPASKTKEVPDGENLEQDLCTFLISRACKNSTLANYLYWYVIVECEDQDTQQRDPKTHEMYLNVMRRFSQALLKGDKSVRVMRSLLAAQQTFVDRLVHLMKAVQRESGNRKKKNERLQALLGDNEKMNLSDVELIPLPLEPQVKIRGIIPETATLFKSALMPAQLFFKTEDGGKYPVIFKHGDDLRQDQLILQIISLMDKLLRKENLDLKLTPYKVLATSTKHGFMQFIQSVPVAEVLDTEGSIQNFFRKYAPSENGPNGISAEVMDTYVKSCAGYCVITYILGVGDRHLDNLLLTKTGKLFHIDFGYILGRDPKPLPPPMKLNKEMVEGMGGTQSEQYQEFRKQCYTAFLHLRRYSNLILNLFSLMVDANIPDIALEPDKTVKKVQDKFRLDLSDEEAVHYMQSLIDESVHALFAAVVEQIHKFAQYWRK
# [25] = target: CDK2 (Homo sapiens, UniProt P24941); settings: 1 µM; binder
# [26] = target: ROCK2 (Homo sapiens, UniProt O75116); settings: 1 µM; binder
# [27] = target: CDC42BPG (Homo sapiens, UniProt Q6DT37); settings: 1 µM; binder
# [28] = target: PKMYT1 (Homo sapiens, UniProt Q99640); settings: 1 µM; binder
# [29] = target: LATS2 (Homo sapiens, UniProt Q9NRM7); settings: 1 µM; binder
# [30] = target: RIPK4 (Homo sapiens, UniProt P57078); settings: 1 µM; binder
# Chain of CHEK2 (O96017 whole entry): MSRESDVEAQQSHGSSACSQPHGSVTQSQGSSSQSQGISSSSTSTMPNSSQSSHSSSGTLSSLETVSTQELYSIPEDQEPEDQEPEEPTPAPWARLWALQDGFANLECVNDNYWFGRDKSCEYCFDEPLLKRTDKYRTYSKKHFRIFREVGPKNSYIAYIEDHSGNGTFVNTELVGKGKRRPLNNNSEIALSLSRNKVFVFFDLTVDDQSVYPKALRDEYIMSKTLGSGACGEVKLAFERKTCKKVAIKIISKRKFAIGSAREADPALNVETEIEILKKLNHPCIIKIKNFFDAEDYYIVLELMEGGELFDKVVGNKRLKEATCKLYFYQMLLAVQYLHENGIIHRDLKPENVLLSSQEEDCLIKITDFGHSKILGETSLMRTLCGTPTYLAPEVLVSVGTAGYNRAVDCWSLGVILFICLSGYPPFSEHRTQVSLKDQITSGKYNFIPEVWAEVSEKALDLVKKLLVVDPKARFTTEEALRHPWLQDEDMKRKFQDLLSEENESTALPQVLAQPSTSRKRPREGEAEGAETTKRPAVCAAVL
# Chain of CAMK2A (Q9UQM7 whole entry): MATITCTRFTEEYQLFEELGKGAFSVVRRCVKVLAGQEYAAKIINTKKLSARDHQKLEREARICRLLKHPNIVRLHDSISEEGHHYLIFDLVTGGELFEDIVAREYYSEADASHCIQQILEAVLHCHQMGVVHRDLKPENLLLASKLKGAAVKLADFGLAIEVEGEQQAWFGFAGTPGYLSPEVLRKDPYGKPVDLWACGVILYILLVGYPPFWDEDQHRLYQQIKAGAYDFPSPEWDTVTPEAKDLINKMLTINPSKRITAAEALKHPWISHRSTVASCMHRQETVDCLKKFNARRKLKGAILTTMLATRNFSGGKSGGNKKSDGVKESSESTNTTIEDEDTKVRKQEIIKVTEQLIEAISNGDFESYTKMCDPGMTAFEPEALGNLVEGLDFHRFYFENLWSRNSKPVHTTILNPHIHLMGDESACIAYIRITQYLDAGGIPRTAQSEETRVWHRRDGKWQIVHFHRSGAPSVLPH
# Chain of CAMK1G (Q96NX5 whole entry): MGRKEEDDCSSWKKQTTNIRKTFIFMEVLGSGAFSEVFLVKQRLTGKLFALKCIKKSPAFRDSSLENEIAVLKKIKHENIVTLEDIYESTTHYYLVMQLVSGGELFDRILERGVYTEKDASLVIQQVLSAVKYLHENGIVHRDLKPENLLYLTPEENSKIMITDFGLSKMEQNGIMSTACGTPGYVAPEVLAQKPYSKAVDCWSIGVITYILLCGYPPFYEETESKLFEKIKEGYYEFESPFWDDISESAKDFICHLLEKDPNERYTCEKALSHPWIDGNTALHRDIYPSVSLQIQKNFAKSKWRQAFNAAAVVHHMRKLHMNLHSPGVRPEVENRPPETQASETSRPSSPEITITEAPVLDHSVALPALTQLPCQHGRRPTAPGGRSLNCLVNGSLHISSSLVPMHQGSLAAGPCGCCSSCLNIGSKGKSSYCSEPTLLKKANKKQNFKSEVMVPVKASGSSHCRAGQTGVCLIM
smiles,measurement,setting,value
"CNc1ncc2cc(-c3ccc(-c4cccc(C)n4)cc3Cl)c(=O)n(C[C@H]3OC[C@H](N)CO3)c2n1 [compound 6, G-5555]",Percent Control,[1],88%
same,Percent Control,[2],63%
same,Percent Control,[3],100%
same,Percent Control,[4],99%
same,Percent Control,[5],100%
same,Percent Control,[6],18%
same,Percent Control,[7],79%
same,Percent Control,[8],97%
same,Percent Control,[9],100%
same,Percent Control,[10],100%
same,Percent Control,[11],5.3%
same,Percent Control,[12],51%
same,Percent Control,[13],100%
same,Percent Control,[14],100%
same,Percent Control,[15],100%
same,Percent Control,[16],100%
same,Percent Control,[17],100%
same,Percent Control,[18],67%
same,Percent Control,[19],100%
same,Percent Control,[20],100%
same,Percent Control,[21],97%
same,Percent Control,[22],48%
same,Percent Control,[23],80%
same,Percent Control,[24],100%
same,Percent Control,[25],100%
same,Percent Control,[26],90%
same,Percent Control,[27],15%
same,Percent Control,[28],100%
same,Percent Control,[29],8%
same,Percent Control,[30],100%
